The data set can be described thus: Cleavage rate was reported. It counts as ADME.
`O=c1ccn(C2O[C@H](CO)[C@@H](O)[C@H]2O)cc1` (stereo partly drawn) returned a K obs of 0.095 min⁻¹. Compound `O=c1ccccn1C1O[C@H](CO)[C@@H](O)[C@H]1O` (stereo partly drawn) gave a K obs of 2.01 min⁻¹. Under `O=c1ccn([C@@H]2O[C@H](CO)[C@@H](O)[C@H]2O)c(=O)[nH]1` [URIDINE] stands 1.17 min⁻¹.
